Data published in US7078552B2, “Combretastatin A-1 phosphate and combretastatin B-1 phosphate prodrugs” (Arizona Board of Regents, priority 2000, dated 2006).
≈ marks a conversion by molar mass, not a printed value. Read-outs that look alike come from different tables or passages of the source.

Assays:
[1] = tested on: P388 lymphocytic leukemia cell line; test: Murine P388 lymphocytic leukemia in vitro cell growth inhibition; assay type: cell-based
[2] = tested on: NCl-H460; test: Human cancer cell line growth inhibition, Lung-NSC NCl-H460; assay type: cell-based; settings: for GI50: Homo sapiens
[3] = tested on: BXPC-3; test: Human cancer cell line growth inhibition, Pancreas-a BXPC-3; assay type: cell-based; settings: for GI50: Homo sapiens
[4] = tested on: P388 lymphocytic leukemia cell line; settings: literature (Pettit et al, 1987, 1989); cited from earlier work
[5] = tested on: tubulin; settings: at equal concentrations; cited from earlier work
[6] = tested on: tubulin (microtubule assembly); settings: literature (Pettit et al, 1987, 1989); read-out: IC50 inhibiting microtubule assembly in vitro; cited from earlier work
[7] = tested on: DU-I45; test: Human cancer cell line growth inhibition, Prostate DU-I45; assay type: cell-based; settings: for GI50: Homo sapiens
[8] = tested on: P388 leukemia; settings: early murine P388 leukemia in vivo experiments, compared with combretastatin A-4; cited from earlier work
[9] = tested on: OVCAR-3; test: Human cancer cell line growth inhibition, Ovarian OVCAR-3; assay type: cell-based; settings: for GI50: Homo sapiens
[10] = tested on: KM20L2; test: Human cancer cell line growth inhibition, Colon KM20L2; assay type: cell-based; settings: for GI50: Homo sapiens, KM-20L2
[11] = tested on: SF-295; test: Human cancer cell line growth inhibition, CNS SF-295; assay type: cell-based; settings: for GI50: Homo sapiens
[12] = physchem; settings: water
[13] = 1 mL distilled water at 25° C., Table I
[14] = tested on: P388 and human tumor cell lines; test: Cytotoxicity versus the P388 and human tumor cell lines, comparative statements

Row | Compound | Leukemia P388 ED50 ([1]; P388 cell line) [µg/mL] | Lung-NSC NCl-H460 GI50 [2] [µg/mL] | Pancreas-a BXPC-3 GI50 [3] [µg/mL] | Prostate DU-I45 GI50 [7] [µg/mL] | Ovarian OVCAR-3 GI50 [9] [µg/mL] | Colon KM20L2 GI50 [10] [µg/mL] | CNS SF-295 GI50 [11] [µg/mL] | further results
1 | COc1ccc(/C=C\c2cc(OC)c(OC)c(OC)c2)c(O)c1O [Compound 1, Combretastatin A-1] | 0.251 | 0.74 | 4.4 | 0.17 |  |  |  | ED50 against murine P388 lymphocytic leukemia in vitro system [4]: 0.99 µg/mL (≈ 2980 nM); inhibition of colchicine binding to tubulin [5]: ~99%; IC50 [6]: 2000 nM; antineoplastic results in vivo [8]: more consistent antineoplastic results
2 | COc1ccc(CCc2cc(OC)c(OC)c(OC)c2)c(O)c1O [Compound 2, combretastatin B-1] |  |  |  |  |  |  |  | Leukemia P388 ED50 [1]: 1.7 µg/mL; ED50 against murine P388 lymphocytic leukemia in vitro system [4]: 1.7 µg/mL (≈ 5080 nM); IC50 [6]: 3000 nM
3 | COc1ccc(/C=C\c2cc(OC)c(OC)c(OC)c2)cc1O [Compound 3a, combretastatin A-4, reference compound] | […] |  |  |  |  |  |  | GI50 [9]: < 0.001 µg/mL; GI50 [2]: 0.0006 µg/mL (≈ 1.9 nM); GI50 [10]: 0.061 µg/mL (≈ 193 nM); GI50 [3]: 0.39 µg/mL (≈ 1230 nM); ED50 against murine P388 lymphocytic leukemia in vitro system [4]: ~0.0009 µg/mL (≈ 2.84 nM); IC50 [6]: […]; GI50 [7]: 0.0008 µg/mL (≈ 2.53 nM); GI50 [11]: < 0.001 µg/mL
4 | COc1cc(/C=C\c2ccc(OC)c(OP(=O)(O)O)c2OP(=O)(O)O)cc(OC)c1OC [Compound 4, Sodium Combretastatin A-1 2′,3′-O-diphosphate] | <0.0100 |  |  |  |  |  |  | GI50 [9]: 0.024 µg/mL; GI50 [2]: 0.038 µg/mL; solubility ([12]; 25 °C): 120 mg/mL; solubility [12]: 120 mg/mL; GI50 [10]: 0.53 µg/mL; solubility ([13]; second part (column repeated)): 120 mg/mL; GI50 [3]: 1.5 µg/mL; GI50 [7]: 0.034 µg/mL; GI50 [11]: 0.036 µg/mL
5 | COc1cc(CCc2ccc(OC)c(OP(=O)(O)O)c2OP(=O)(O)O)cc(OC)c1OC [Compound 5, Sodium Combretastatin B-1 2′,3′-O-Diphosphate] | 0.335 |  |  |  |  |  |  | GI50 [9]: 2 µg/mL; GI50 [2]: 3.3 µg/mL; solubility ([12]; 25 °C): > 50 mg/mL; cytotoxicity / antineoplastic activity compared to prodrug 4 [14]: reduced antineoplastic activity; GI50 [10]: > 10 µg/mL; GI50 [3]: > 10 µg/mL; GI50 [7]: 2.7 µg/mL; GI50 [11]: 2.3 µg/mL
6 | COc1cc(/C=C\c2ccc(OC)c(OP(=O)([O-])[O-])c2OP(=O)([O-])[O-])cc(OC)c1OC.[Li+].[Li+].[Li+].[Li+] [Compound 11a, Lithium Combretastatin A-1 2′,3′-O-diphosphate] | <0.0100 | 0.040 | 0.33 | 0.031 | 0.028 | 0.37 | 0.042 | 
7 | COc1cc(/C=C\c2ccc(OC)c(OP(=O)([O-])[O-])c2OP(=O)([O-])[O-])cc(OC)c1OC.[K+].[K+].[K+].[K+] [Compound 11b, Potassium Combretastatin A-1 2′,3′-O-diphosphate] | 0.0170 | 0.036 | 0.38 | 0.024 | 0.023 | 0.30 | 0.035 | solubility ([13]; first part): >90 mg/mL; solubility ([13]; second part (column repeated)): >90 mg/mL
8 | COc1cc(/C=C\c2ccc(OC)c(OP(=O)([O-])[O-])c2OP(=O)([O-])[O-])cc(OC)c1OC.[Cs+].[Cs+].[Cs+].[Cs+] [Compound 11c, Cesium Combretastatin A-1 2′,3′-O-diphosphate] | 0.0365 | 0.040 | 0.31 | 0.024 | 0.024 | 0.28 | 0.038 | 
9 | COc1cc(/C=C\c2ccc(OC)c(OP(=O)([O-])[O-])c2OP(=O)([O-])[O-])cc(OC)c1OC.[Mn+2].[Mn+2] [Compound 11f, Manganese Combretastatin A-1 2′, 3′-O-diphosphate] | 0.715 | 0.19 | 4.7 | 2.4 | 0.044 | 6.1 | 0.28 | 
10 | COc1cc(/C=C\c2ccc(OC)c(OP(=O)([O-])[O-])c2OP(=O)([O-])[O-])cc(OC)c1OC.[Zn+2].[Zn+2] [Compound 11g, Dizinc Combretastatin A-1 2′,3′-O-diphosphate] | 0.0394 | 0.032 | 0.36 | 0.025 | 0.027 | 0.32 | 0.033 | 
11 | Calcium Combretastatin A-1 2′,3′-O-diphosphate [Compound 11e] | 0.0102 | 0.037 | 0.28 | 0.024 | 0.024 | 0.34 | 0.041 | 
12 | Magnesium Combretastatin A-1 2′,3′-O-diphosphate [Compound 11d] | 0.0245 | 0.039 | 0.44 | 0.032 | 0.031 | 0.47 | 0.039 | 
13 | Morpholine Combretastatin A-1 2′,3′-O-diphosphate [Compound 11h] | 0.002 | 0.046 | 0.35 | 0.039 | 0.043 | 0.26 | 0.042 | 
14 | Nicotinamide Combretastatin A-1 2′,3′-O-diphosphate [Compound 11j] | 0.005 | 0.15 | 0.42 | 0.046 | 0.054 | 0.53 | 0.053 | 
15 | Papaverine Combretastatin A-1 2′,3′-O-diphosphate [Compound 11n] | 0.05 | 0.27 | 0.38 | 0.054 | 0.052 | 0.33 | 0.063 | 
16 | Piperazine Combretastatin in A-1 2′,3′-O-diphosphate [Compound 11i] | 0.002 | 0.037 | 0.35 | 0.036 | 0.046 | 0.20 | 0.039 | 
17 | Quinidine Combretastatin A-1 2′,3′-O-diphosphate [Compound 11l] | 0.004 | 0.37 | 0.55 | 0.10 | 0.043 | 0.84 | 0.056 | 
18 | Quinine Combretastatin A-1 2′,3′-O-dephosphate [Compound 11k] | 0.004 | 0.34 | 0.47 | 0.050 | 0.054 | 0.40 | 0.044 | 
